Test results published in patent US11197856B2, “Bicyclic compounds and methods for their use in treating autism” (priority 2013, dated 2021).

Columns and labels:
[1] = tested on: fmr1-knockout and wild-type animals; experiment: Contextual fear conditioning (freezing behavior); format: in vivo, mice
Description: Fear conditioning to either a cure or a context represents a form of associative learning that has been well used in many species. The dependent measure used in contextual (delay) fear conditioning is a freezing response that takes place following pairing of an unconditioned stimulus (foot shock), with a conditioned stimulus (CS), a particular context and/or such a cue. If in a conditioning context one administers a foot shock that is paired with atone, there will be learning not only to the tone, but also to the context.
Contextual fear conditioning is a bask conditioning procedure. It involves taking an animal and placing it in a novel environment, providing an aversive stimulus, and then removing it. […] Freezing is a response to fear, which has been defined as “absence of movement except for respiration.” This freezing behavior may last from seconds to minutes depending on the strength of the aversive stimulus, the number of presentations, and the degree of learning achieved by the subject.
The device used in this study is depicted in FIG. 27. An unconditioned stimulus (mild shock to the feet) was applied, and the conditioned stimulus was a tone applied along with the shock to the feet. Under these conditions, the animals associate the unconditioned stimulus with both the conditioned stimulus and the context of the stimuli. Animals were tested for […].

[2] = tested on: hippocampal slices of Shank3-deficient mice; experiment: Shank3-deficient mice: hippocampal slice electrophysiology; format: in vivo
Protocol: (§1) 1 to 3 month old wild-type and heterozygous Shank3-deficient mice are divided into 4 treatment groups: placebo treated wild-type, placebo treated Shank3-deficient group and two Shank3-deficient cG-2-AllylP treated groups. The animals are given placebo (water) or cG-2-AllylP formulated in water administered orally, b.i.d for 14 days. cG-2-AllylP is administered at two doses: 15 or 60 mg/kg.
Post-mortem, acute hippocampal slices (350 μm) are prepared from mice using a tissue chopper. Slices are maintained and experiments are conducted at 32° C. Slices are perfused with Ringer's solution containing (in mM): NaCl, 125.0; KCl, 2.5; MgSO4, 1.3; NaH2PO4, 1.0; NaHCO3, 26.2; CaCl2, 2.5; glucose, 11.0. The Ringer's solution is bubbled with 95% 02/5% CO2, at 32° C., during extracellular recordings (electrode solution: 3 M NaCl). Slices are maintained for 1 hr prior to establishment of a baseline of field excitatory postsynaptic potentials (fEPSPs) recorded from stratum radiatum in area CA1, evoked by stimulation of the Schaffer collateral-commissural afferents (100 μs pulses every 30 s) with bipolar tungsten electrodes placed into area CA3. Test stimulus intensity is adjusted to obtain fEPSPs with amplitudes that are one-half of the maximal response. The EPSP initial slope (mV/ms) is determined from the average waveform of four consecutive responses. Input-output (I/O) curves are generated by plotting the fEPSP slope versus fiber volley amplitude in low-Mg^2+ (0.1 mM) solution. AMPA receptor-mediated and NMDA receptor-mediated I/O relationships are measured in the presence of ionotropic glutamate receptor antagonists: […] APV (50 μM) and 6-cyano-7-nitroquinoxaline-2,3-dione CNQX (100 μM). Paired-pulse responses are measured with interstimulus intervals of 10 to 200 ms, and are expressed as the ratio of the average responses to the second stimulation pulse to the first stimulation pulse. […]

[3] = tested on: heterozygous Shank3-deficient mice; experiment: Shank3-deficient mice: olfactory habituation/dishabituation; format: in vivo; details: all 4 groups
Protocol: as §1
Olfactory habituation/dishabituation testing is conducted in male and female mice for each group. The methodology is as previously described (Silverman et al 2010, Yang et al 2009 and Silverman et al 2010). Non-social and social odors are presented on a series of cotton swabs inserted into the home cage sequentially, each for 2 min, in the following order; water, water, water (distilled water); almond, almond, almond (1:100 dilution almond extract); banana, banana, banana (1:100 dilution artificial banana flavouring); social 1, social 1, social 1 (swiped from the bottom of a cage housing unfamiliar sex-matched B6 mice); and social 2, social 2, social 2 (swiped from the bottom of a second cage housing a different group of unfamiliar sex-matched 129/SvImJ mice). One-way repeated measures ANOVA is performed within each treatment group for each set of habituation events and each dishabituation event, followed by a Tukey post hoc test.

C=CC[C@]12CCCN1C(=O)CNC2=O [cG-2-AllylP, (8aS)-Allyl-hexahydropyrrolo[1,2-a]pyrazine-1,4-dione]
time spent in freezing behavior [1]: substantial and statistically significant increase in the time spent in freezing behavior
hippocampal long-term potentiation (LTP) and its maintenance ([2]; both Shank3-deficient groups, vs placebo): increases hippocampal long-term potentiation (LTP) and its maintenance
AMPA receptor-mediated field potentials ([2]; both heterozygous groups, 15 or 60 mg/kg): normalizes the AMPA receptor-mediated field potentials
average slope of I/O function ([2]; both heterozygous groups, vs placebo treated Shank3-deficient group): increase in the average slope of I/O function
olfactory habituation [3]: normal levels of habituation
